Experiments:
Assay in all cases: combination Emax (second highest fraction inhibited in the dose matrix, 72 h); higher = more inhibition; extreme values may be limits of the assay
[1] = system: OCUM-1 (Gastric Carcinoma)
Outline: (§1)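 After 24 hours at 37°C and 5% CO2 in 1536-well plates, cells in DMEM/F12 or RPMI plus 10% FBS received two-drug dose matrices for 72 hours. Viability came from CellTiter-Glo 2.0 luminescence and was scaled as inhibition, anchored at 0 by vehicle wells and at 1 by blank wells. Combination Emax is taken as the second-highest inhibition in the matrix, and Bliss excess as the observed combination effect less EA + EB − EA·EB, with EA and EB the single-agent effects.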

[2] = system: TGBC11TKB (Gastric Carcinoma)
Outline: as §1

NB7 (Neuroblastoma) = system: NB7 (Neuroblastoma)
Outline: as §1

[3] = system: NCI-H513 (Other Solid Carcinomas)
Outline: as §1

[4] = system: OCUB-M (Breast Carcinoma)
Outline: as §1

[5] = system: PF-382 (T-Lymphoblastic Leukemia)
Outline: as §1

[6] = system: ASH-3 (Thyroid Gland Carcinoma)
Outline: as §1

[7] = system: NCI-H2347 (Lung Adenocarcinoma)
Outline: as §1

[8] = system: PFSK-1 (Other Solid Carcinomas)
Outline: as §1

[9] = system: KLE (Endometrial Carcinoma)
Outline: as §1

BT-20 (Breast Carcinoma) = system: BT-20 (Breast Carcinoma)
Outline: as §1

NH-12 (Neuroblastoma) = system: NH-12 (Neuroblastoma)
Outline: as §1

EW-18 (Ewing's Sarcoma) = system: EW-18 (Ewing's Sarcoma)
Outline: as §1

[10] = system: SCC-3 (B-Cell Non-Hodgkin's Lymphoma)
Outline: as §1

[11] = system: NCI-H322M (Lung Adenocarcinoma)
Outline: as §1

GOTO (Neuroblastoma) = system: GOTO (Neuroblastoma)
Outline: as §1

[12] = system: HC-1 (Other Blood Carcinomas)
Outline: as §1

U-87-MG (Glioblastoma) = system: U-87-MG (Glioblastoma)
Outline: as §1

[13] = system: DG-75 (Burkitt's Lymphoma)
Outline: as §1

EW-13 (Ewing's Sarcoma) = system: EW-13 (Ewing's Sarcoma)
Outline: as §1

Row | Structure (SMILES) | combination Emax [1] | combination Emax [2] | combination Emax (NB7 (Neuroblastoma)) | combination Emax [3] | combination Emax [4] | combination Emax [5] | combination Emax [6] | combination Emax [7] | combination Emax [8] | combination Emax [9] | combination Emax (BT-20 (Breast Carcinoma)) | combination Emax (NH-12 (Neuroblastoma)) | combination Emax (EW-18 (Ewing's Sarcoma)) | combination Emax [10] | combination Emax [11] | combination Emax (GOTO (Neuroblastoma)) | combination Emax [12] | combination Emax (U-87-MG (Glioblastoma)) | combination Emax [13] | combination Emax (EW-13 (Ewing's Sarcoma))
1 | CS(=O)(=O)CCNCc1ccc(-c2ccc3ncnc(Nc4ccc(OCc5cccc(F)c5)c(Cl)c4)c3c2)o1 [Lapatinib] + NC1(c2ccc(-c3nc4ccn5c(=O)[nH]nc5c4cc3-c3ccccc3)cc2)CCC1 [MK-2206] (first compound max 10 µM, 7x7, partner max 10 µM) | 0.843 | 0.418 | 0.821 | 0.386 | 1 | 0.974 | 0.956 | 0.188 | 0.942 | – | – | – | – | – | – | – | – | – | – | –
2 | CN(C)CCCOc1ccc(-c2ccc3ncc4c(c3c2)n(C2CCOCC2)c(=O)n4C)cn1 [AZD0156] + O=C(c1cc(Cc2n[nH]c(=O)c3ccccc23)ccc1F)N1CCN(C(=O)C2CC2)CC1 [Olaparib] (first compound max 3 µM, partner max 3 µM) | 0.319 | 0.131 | 0.297 | 0.194 | 0.273 | 0.38 | 0.194 | 0.268 | 0.424 | 0.334 | 0.157 | 0.177 | 0.61 | 0.687 | 0.357 | 0.306 | 0.527 | 0.297 | 0.481 | –
3 | C=CCn1c(=O)c2cnc(Nc3ccc(N4CCN(C)CC4)cc3)nc2n1-c1cccc(C(C)(C)O)n1 [AZD1775] + C1CN(CCC1(C(=O)N[C@@H](CCO)C2=CC=C(C=C2)Cl)N)C3=NC=NC4=C3C=CN4 [Capivasertib] (first compound max 3 µM, partner max 3 µM) | 0.707 | 0.939 | 0.748 | 0.494 | 0.955 | 0.952 | 0.519 | 0.477 | 0.893 | 0.619 | 0.69 | 0.852 | 0.859 | 0.977 | 0.768 | 0.712 | 0.982 | 0.467 | 0.922 | –
4 | COc1cccc(OCCCN)c1-c1cc(Nc2cnc(C#N)cn2)n[nH]1 [Prexasertib] + C[C@@H]1COCCN1C2=NC(=NC(=C2)C3(CC3)[S@](=N)(=O)C)C4=C5C=CNC5=NC=C4 [AZD6738] (first compound max 1 µM, 7x7, partner max 10 µM) | 0.813 | 0.977 | 0.808 | 0.363 | 0.585 | 0.917 | 0.705 | 0.458 | – | 0.437 | 0.599 | 0.925 | 0.745 | 1 | 0.994 | 0.913 | 1 | – | 0.942 | 0.632
5 | Cc1c2c(nn1C)CSCc1cc(n(C)n1)CSc1cc(c3ccccc3c1)OCCCc1c(C(=O)O)n(C)c3c-2c(Cl)ccc13 [AZD5991] + C1CN(CCC1(C(=O)N[C@@H](CCO)C2=CC=C(C=C2)Cl)N)C3=NC=NC4=C3C=CN4 [Capivasertib] (first compound max 1 µM, 7x7, partner max 3 µM) | 0.219 | 0.472 | 0.609 | – | 1 | 0.477 | 0.267 | 0.134 | 1 | 0.267 | 0.867 | 0.32 | 0.95 | 0.487 | 0.225 | 0.725 | 0.588 | 0.372 | 0.257 | 0.432
6 | CN(C)CCCOc1ccc(-c2ccc3ncc4c(c3c2)n(C2CCOCC2)c(=O)n4C)cn1 [AZD0156] + C[C@@H]1COCCN1C2=NC(=NC(=C2)C3(CC3)[S@](=N)(=O)C)C4=C5C=CNC5=NC=C4 [AZD6738] (first compound max 1 µM, 7x7, partner max 10 µM) | 0.783 | 0.799 | 0.804 | 0.315 | 0.494 | 0.855 | 0.719 | 0.346 | – | 0.469 | 0.449 | 0.901 | 0.727 | 0.998 | 0.922 | 0.913 | 0.77 | – | 0.939 | 0.581
7 | COc1cc2c(cc1OCCCCCOc1cc3c(cc1OC)C(=O)N1C=C(C)C[C@H]1C=N3)N=C[C@@H]1CC(C)=CN1C2=O [SG3199] + O=C(c1cc(Cc2n[nH]c(=O)c3ccccc23)ccc1F)N1CCN(C(=O)C2CC2)CC1 [Olaparib] (first compound max 0.001 µM, 7x7, partner max 10 µM) | 0.122 | 0.3 | 0.166 | 0.107 | 0.232 | 0.259 | 0.0979 | 0.181 | – | 0.184 | 0.154 | 0.319 | 0.0839 | 0.437 | 0.256 | 0.522 | 0.498 | – | 0.201 | 0.584
8 | Cc1cc2ncnn2cc1Nc1ncc2c(n1)n(C1CCOCC1)c(=O)n2C [AZD7648] + C[C@@H]1COCCN1C2=NC(=NC(=C2)C3(CC3)[S@](=N)(=O)C)C4=C5C=CNC5=NC=C4 [AZD6738] (first compound max 10 µM, 7x7, partner max 10 µM) | 0.719 | 0.861 | 0.572 | 0.31 | 0.49 | 0.858 | 0.509 | 0.401 | – | 0.419 | 0.479 | 0.863 | 0.636 | 0.857 | 0.944 | 0.889 | 0.616 | – | 0.885 | 0.564
9 | Cc1cc2ncnn2cc1Nc1ncc2c(n1)n(C1CCOCC1)c(=O)n2C [AZD7648] + CCN(CCO)CCCOc1ccc2c(Nc3cc(CC(=O)Nc4cccc(F)c4)[nH]n3)ncnc2c1 [AZD2811] (first compound max 10 µM, 7x7, partner max 1 µM) | 0.369 | 0.327 | 0.406 | 0.116 | 0.764 | 0.851 | 0.324 | 0.302 | – | 0.382 | 0.426 | 0.667 | 0.68 | 0.338 | 0.352 | 0.491 | 0.737 | – | 0.475 | 0.291
10 | Cc1cc2ncnn2cc1Nc1ncc2c(n1)n(C1CCOCC1)c(=O)n2C [AZD7648] + C=CCn1c(=O)c2cnc(Nc3ccc(N4CCN(C)CC4)cc3)nc2n1-c1cccc(C(C)(C)O)n1 [AZD1775] (first compound max 10 µM, partner max 1 µM) | 0.384 | 0.825 | 0.575 | 0.431 | 0.448 | 0.957 | 0.324 | 0.359 | – | 0.508 | 0.559 | 0.848 | 0.553 | 0.815 | 0.923 | 0.783 | 0.992 | – | 0.833 | 0.332
11 | C[C@@H](c1ccc2nccn2c1)n1nnc2ncc(-c3cnn(C)c3)nc21 [Savolitinib] + CN(CC[C@H](CSC1=CC=CC=C1)NC2=C(C=C(C=C2)S(=O)(=O)NC(=O)C3=CC=C(C=C3)N4CCC(CC4)[C@H](C5=CC=CC=C5C6=CC=C(C=C6)Cl)O)S(=O)(=O)C(F)(F)F)CCO [AZD4320] (first compound max 1 µM, 7x7, partner max 1 µM) | – | – | – | 0.113 | – | 0.993 | 0.463 | 0.413 | 0.329 | 0.216 | 0.418 | 0.824 | 0.891 | 0.0987 | 0.0979 | 0.495 | 0.546 | 0.259 | 0.057 | 0.639
12 | CCN(CCO)CCCOc1ccc2c(Nc3cc(CC(=O)Nc4cccc(F)c4)[nH]n3)ncnc2c1 [AZD2811] + C[C@@H]1COCCN1C2=NC(=NC(=C2)C3(CC3)[S@](=N)(=O)C)C4=C5C=CNC5=NC=C4 [AZD6738] (first compound max 1 µM, 7x7, partner max 10 µM) | 0.708 | 0.791 | 0.603 | 0.283 | 0.748 | 0.916 | 0.486 | 0.343 | – | 0.387 | 0.443 | 0.858 | 0.743 | 0.973 | 0.852 | 0.893 | 0.789 | – | 0.841 | 0.638
13 | CC(=O)c1c(C)c2cnc(Nc3ccc(N4CCNCC4)cn3)nc2n(C2CCCC2)c1=O [Palbociclib] + CN(CC[C@H](CSC1=CC=CC=C1)NC2=C(C=C(C=C2)S(=O)(=O)NC(=O)C3=CC=C(C=C3)N4CCC(CC4)[C@H](C5=CC=CC=C5C6=CC=C(C=C6)Cl)O)S(=O)(=O)C(F)(F)F)CCO [AZD4320] (first compound max 10 µM, 7x7, partner max 1 µM) | – | – | – | 0.205 | – | 1 | 0.692 | 0.458 | 0.51 | 0.355 | 0.546 | 0.988 | 0.903 | 0.392 | 0.517 | 0.846 | 0.831 | 0.312 | 0.735 | 0.649
14 | Cc1c2c(nn1C)CSCc1cc(n(C)n1)CSc1cc(c3ccccc3c1)OCCCc1c(C(=O)O)n(C)c3c-2c(Cl)ccc13 [AZD5991] + C[C@@H]1COCCN1C2=NC(=NC(=C2)C3(CC3)[S@](=N)(=O)C)C4=C5C=CNC5=NC=C4 [AZD6738] (first compound max 1 µM, 7x7, partner max 10 µM) | 0.71 | 0.889 | 0.918 | 0.344 | 1 | 0.929 | 0.566 | 0.322 | 1 | 0.483 | – | 0.901 | 0.928 | 0.957 | 0.94 | 0.92 | 0.926 | 0.494 | 0.817 | 0.805

Source: the supplement of paper PMC11061612
